4 compounds from ChEMBL document CHEMBL5230103, “Hydroxamic acid hybrids as the potential anticancer agents: An Overview” (Eur J Med Chem, 2020) can be followed below.

Series [1] relates to T98G. Put plainly: Cytotoxicity against human T98G cells assessed as inhibition of cell growth by MTT assay. Format: functional, cell-based. On the technique in general: Tetrazolium assays rely on reduction of a dye to a coloured formazan, in cell work by metabolically active cells.
Series [2] in a line: Cytotoxicity against human U87 cells assessed as inhibition of cell growth by MTT assay. Format: functional, cell-based, U-87MG ATCC. Particulars: U-87 MG.
Series [3] has as its system U-251. Put plainly: Cytotoxicity against human U-251 cells assessed as inhibition of cell growth by MTT assay. It is filed as functional, cell-based.
Series [4] concerns the target Histone deacetylase 3 (Homo sapiens, UniProt O15379). Put plainly: Inhibition of HDAC3 (unknown origin).
Series [5] deals with HL-60. Put plainly: Antiproliferative activity against human HL-60 cells assessed as inhibition of cell growth by MTT assay. Format: functional, cell-based.
For series [6], the target named is Histone deacetylase 1 (Homo sapiens, UniProt Q13547). Put plainly: Inhibition of HDAC1 (unknown origin).
Chain of Histone deacetylase 1 (Q13547 whole entry): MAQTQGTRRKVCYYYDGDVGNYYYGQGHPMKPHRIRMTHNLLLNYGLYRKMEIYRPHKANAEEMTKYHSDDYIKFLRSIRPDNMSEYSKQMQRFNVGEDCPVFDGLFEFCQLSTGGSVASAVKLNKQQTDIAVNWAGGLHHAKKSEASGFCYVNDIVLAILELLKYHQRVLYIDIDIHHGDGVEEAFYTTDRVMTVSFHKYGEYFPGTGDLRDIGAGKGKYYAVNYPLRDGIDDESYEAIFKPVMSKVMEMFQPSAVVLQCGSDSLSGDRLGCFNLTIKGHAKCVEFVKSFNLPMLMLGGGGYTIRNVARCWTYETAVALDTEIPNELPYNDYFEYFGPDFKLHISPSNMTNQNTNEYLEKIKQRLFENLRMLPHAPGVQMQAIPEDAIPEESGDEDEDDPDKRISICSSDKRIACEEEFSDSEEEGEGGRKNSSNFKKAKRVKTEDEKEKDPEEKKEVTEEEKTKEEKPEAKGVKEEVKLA
The target of series [7] is T1, Protein deacetylase HDAC6 (Homo sapiens, UniProt Q9UBN7).
T1 sequence (Q9UBN7 whole entry): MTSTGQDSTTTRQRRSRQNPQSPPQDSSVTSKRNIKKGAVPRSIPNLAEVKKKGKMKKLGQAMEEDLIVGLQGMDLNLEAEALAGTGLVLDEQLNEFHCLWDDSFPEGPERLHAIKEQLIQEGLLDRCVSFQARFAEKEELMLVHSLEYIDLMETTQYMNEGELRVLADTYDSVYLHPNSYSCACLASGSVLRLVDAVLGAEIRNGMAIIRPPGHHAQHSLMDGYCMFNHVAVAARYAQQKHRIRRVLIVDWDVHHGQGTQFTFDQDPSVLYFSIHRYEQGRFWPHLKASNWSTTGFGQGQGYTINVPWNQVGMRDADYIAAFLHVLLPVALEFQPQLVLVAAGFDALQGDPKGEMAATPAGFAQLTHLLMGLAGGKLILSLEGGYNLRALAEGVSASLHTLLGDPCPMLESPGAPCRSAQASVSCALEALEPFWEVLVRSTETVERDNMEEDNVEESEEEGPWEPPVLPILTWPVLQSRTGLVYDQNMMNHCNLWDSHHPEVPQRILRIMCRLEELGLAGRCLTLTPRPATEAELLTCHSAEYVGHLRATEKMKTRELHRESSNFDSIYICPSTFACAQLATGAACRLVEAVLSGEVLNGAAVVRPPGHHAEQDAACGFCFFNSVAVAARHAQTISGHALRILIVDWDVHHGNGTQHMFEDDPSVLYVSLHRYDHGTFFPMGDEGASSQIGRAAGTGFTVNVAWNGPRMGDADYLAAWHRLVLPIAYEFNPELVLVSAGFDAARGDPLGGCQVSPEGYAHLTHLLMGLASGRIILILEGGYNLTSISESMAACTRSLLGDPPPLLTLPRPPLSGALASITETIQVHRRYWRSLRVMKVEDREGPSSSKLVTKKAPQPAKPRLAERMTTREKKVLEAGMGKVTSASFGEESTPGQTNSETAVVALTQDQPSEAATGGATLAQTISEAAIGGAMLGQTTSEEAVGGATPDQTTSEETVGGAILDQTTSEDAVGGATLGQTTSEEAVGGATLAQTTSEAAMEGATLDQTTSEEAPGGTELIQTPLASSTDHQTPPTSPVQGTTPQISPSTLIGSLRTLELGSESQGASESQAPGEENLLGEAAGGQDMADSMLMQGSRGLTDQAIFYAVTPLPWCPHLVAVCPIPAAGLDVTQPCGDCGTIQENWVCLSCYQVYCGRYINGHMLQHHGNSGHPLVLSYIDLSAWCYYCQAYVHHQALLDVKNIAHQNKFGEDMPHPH
Put plainly: Inhibition of HDAC6 (unknown origin).

Series [8] in a line: Cytotoxicity against human HuT 102 cells assessed as inhibition of cell growth by MTT assay. It is filed as functional, cell-based.
Series [9] concerns A549. Put plainly: Antitumor activity against human A549 cells xenografted in mouse assessed as inhibition of tumor growth at 30 mg/kg, ip relative to control. It is filed as functional. In general terms: A xenograft is tissue or cells of one species grown in another, often human tumour cells in immunodeficient mice.
Series [10] deals with K562. Put plainly: Cytotoxicity against human K562 cells assessed as inhibition of cell growth by MTT assay. It is filed as functional, cell-based.
For series [11], the system named is PC-3. Put plainly: Cytotoxicity against human PC-3 cells assessed as inhibition of cell growth by MTT assay. It is filed as functional, cell-based.
In series [12] the test system is HCT-116. Put plainly: Cytotoxicity against human HCT-116 cells assessed as inhibition of cell growth by MTT assay. It is filed as functional, cell-based.
Series [13] has as its system HT-29. Put plainly: Cytotoxicity against human HT-29 cells assessed as inhibition of cell growth by MTT assay. Format: functional, cell-based.
The target of series [14] is Histone deacetylase. Put plainly: Inhibition of HDAC (unknown origin). It is filed as protein assay, Homo sapiens.
For series [15], the system named is SW-620. Put plainly: Cytotoxicity against human SW620 cells assessed as inhibition of cell growth by MTT assay. It is filed as functional, cell-based.
The target in series [16] is cGMP-specific 3',5'-cyclic phosphodiesterase (Homo sapiens, UniProt O76074). Put plainly: Inhibition of PDE5 (unknown origin).
Series [17] has as its system MOLT-4. Put plainly: Cytotoxicity against human MOLT-4 cells assessed as inhibition of cell growth by MTT assay. It is filed as functional, cell-based.
For series [18], the system named is SUP-T1. Put plainly: Cytotoxicity against human SUP-T1 cells assessed as inhibition of cell growth by MTT assay. Format: functional, cell-based.
The test system of series [19] is AGS. Put plainly: Cytotoxicity against human AGS cells assessed as inhibition of cell growth by MTT assay. It is filed as functional, cell-based.
The subject of series [20] is LNCaP. Put plainly: Cytotoxicity against human LNCaP cells assessed as inhibition of cell growth by MTT assay. Format: functional, cell-based.
The test system of series [21] is T47D. Put plainly: Cytotoxicity against human T47D cells assessed as inhibition of cell growth by MTT assay. Format: functional, cell-based.
In series [22] the test system is A549. Put plainly: Cytotoxicity against human A549 cells assessed as inhibition of cell growth by MTT assay. It is filed as functional, cell-based.
Series [23] has as its system MCF7. Put plainly: Cytotoxicity against human MCF7 cells assessed as inhibition of cell growth by MTT assay. Format: functional, cell-based.
In series [24] the target is Histone deacetylase 2 (Homo sapiens, UniProt Q92769). Put plainly: Inhibition of HDAC2 (unknown origin).
Chain of Histone deacetylase 2 (Q92769 whole entry): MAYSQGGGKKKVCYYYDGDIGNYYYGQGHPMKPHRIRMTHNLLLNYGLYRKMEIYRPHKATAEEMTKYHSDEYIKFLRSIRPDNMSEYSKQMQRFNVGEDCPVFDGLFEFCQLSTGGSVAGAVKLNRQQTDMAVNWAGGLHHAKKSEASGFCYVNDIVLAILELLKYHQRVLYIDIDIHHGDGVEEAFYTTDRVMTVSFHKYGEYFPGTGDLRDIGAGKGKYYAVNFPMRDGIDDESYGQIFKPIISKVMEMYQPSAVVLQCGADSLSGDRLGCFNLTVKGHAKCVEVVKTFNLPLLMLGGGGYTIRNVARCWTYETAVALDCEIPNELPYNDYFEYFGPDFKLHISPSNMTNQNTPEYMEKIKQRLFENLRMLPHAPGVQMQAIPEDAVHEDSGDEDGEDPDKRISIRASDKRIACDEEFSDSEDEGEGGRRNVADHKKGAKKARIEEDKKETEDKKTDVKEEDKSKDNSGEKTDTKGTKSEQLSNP
Series [25] deals with Histone deacetylase 8 (Homo sapiens, UniProt Q9BY41). Put plainly: Inhibition of HDAC8 (unknown origin).
Chain of Histone deacetylase 8 (Q9BY41 whole entry): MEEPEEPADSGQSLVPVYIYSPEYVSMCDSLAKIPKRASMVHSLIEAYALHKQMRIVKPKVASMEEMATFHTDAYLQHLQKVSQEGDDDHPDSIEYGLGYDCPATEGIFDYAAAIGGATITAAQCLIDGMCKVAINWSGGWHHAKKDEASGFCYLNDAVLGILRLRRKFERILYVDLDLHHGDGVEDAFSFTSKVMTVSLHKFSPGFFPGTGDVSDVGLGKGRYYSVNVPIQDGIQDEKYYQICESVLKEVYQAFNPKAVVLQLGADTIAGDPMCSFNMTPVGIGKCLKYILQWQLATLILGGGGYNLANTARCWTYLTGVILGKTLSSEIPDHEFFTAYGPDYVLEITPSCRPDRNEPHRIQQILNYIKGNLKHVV
The subject of series [26] is MDA-MB-231. Put plainly: Cytotoxicity against human MDA-MB-231 cells assessed as inhibition of cell growth by MTT assay. Format: functional, cell-based.
Series [27] relates to MDA-MB-231. Put plainly: Antitumor activity against human MDA-MB-231 cells xenografted in mouse assessed as reduction on tumor volume at 20 mg/kg, ip relative to control. Format: functional. On the set-up: scale not given: the % may be the effect or the level left.
For series [28], the system named is MCF7. Put plainly: Potency index, ratio of vorinostat IC50 to test compound IC50 for cytotoxicity against human MCF7 cells assessed as inhibition of cell growth by MTT assay. It is filed as functional.
In series [29] the test system is MDA-MB-231. Put plainly: Potency index, ratio of vorinostat IC50 to test compound IC50 for cytotoxicity against human MDA-MB-231 cells assessed as inhibition of cell growth by MTT assay. Format: functional.
Series [30] has as its system A549. Put plainly: Potency index, ratio of vorinostat IC50 to test compound IC50 for cytotoxicity against human A549 cells assessed as inhibition of cell growth by MTT assay. It is filed as functional.
Series [31] can be described thus: Cytotoxicity against human MCF-10A cells. Format: toxicity, cell-based.
A short description of series [32]: Cytotoxicity against human MCF-10F cells. Format: toxicity, cell-based.
Series [33] is described as follows: Cytotoxicity against human BEAS-2B cells. It is filed as toxicity, cell-based.
The nature of series [34]: Selectivity index, ratio of IC50 for cytotoxicity against human MCF-10A cells to IC50 for cytotoxicity against human MCF7 cells. The conditions noted are these: MCF-10A cells and MCF7 cells, read-out: Ratio IC50. Format: toxicity, cell-based.
The nature of series [35]: Selectivity index, ratio of IC50 for cytotoxicity against human MCF-10A cells to IC50 for cytotoxicity against human MDA-MB-231 cells. Particulars: MCF-10A cells and MDA-MB-231 cells, read-out: Ratio IC50. Format: toxicity, cell-based.
The nature of series [36]: Selectivity index, ratio of IC50 for cytotoxicity against human MCF-10A cells to IC50 for cytotoxicity against human A549 cells. The conditions noted are these: MCF-10A cells and A549 cells, read-out: Ratio IC50. Format: toxicity, cell-based.
Series [37] is described as follows: Selectivity index, ratio of IC50 for cytotoxicity against human MCF-10F cells to IC50 for cytotoxicity against human MCF7 cells. Format: toxicity, cell-based. Particulars: MCF-10F cells and MCF7 cells, read-out: Ratio IC50.
A short description of series [38]: Selectivity index, ratio of IC50 for cytotoxicity against human MCF-10F cells to IC50 for cytotoxicity against human MDA-MB-231 cells. It is filed as toxicity, cell-based. The conditions noted are these: MCF-10F cells and MDA-MB-231 cells, read-out: Ratio IC50.
Series [39] is described as follows: Selectivity index, ratio of IC50 for cytotoxicity against human MCF-10F cells to IC50 for cytotoxicity against human A549 cells. The conditions noted are these: MCF-10F cells and A549 cells, read-out: Ratio IC50. Format: toxicity, cell-based.
Series [40] is described as follows: Selectivity index, ratio of IC50 for cytotoxicity against human BEAS-2B cells to IC50 for cytotoxicity against human MCF7 cells. The conditions noted are these: BEAS-2B cells and MCF7 cells, read-out: Ratio IC50. It is filed as toxicity, cell-based.
Series [41] can be described thus: Selectivity index, ratio of IC50 for cytotoxicity against human BEAS-2B cells to IC50 for cytotoxicity against human MDA-MB-231 cells. It is filed as toxicity, cell-based. Particulars: BEAS-2B cells and MDA-MB-231 cells, read-out: Ratio IC50.
Series [42] in a line: Selectivity index, ratio of IC50 for cytotoxicity against human BEAS-2B cells to IC50 for cytotoxicity against human A549 cells. Particulars: BEAS-2B cells and A549 cells, read-out: Ratio IC50. Format: toxicity, cell-based.

Molecules are shown by their SMILES.

Chain of Histone deacetylase 3 (O15379 whole entry): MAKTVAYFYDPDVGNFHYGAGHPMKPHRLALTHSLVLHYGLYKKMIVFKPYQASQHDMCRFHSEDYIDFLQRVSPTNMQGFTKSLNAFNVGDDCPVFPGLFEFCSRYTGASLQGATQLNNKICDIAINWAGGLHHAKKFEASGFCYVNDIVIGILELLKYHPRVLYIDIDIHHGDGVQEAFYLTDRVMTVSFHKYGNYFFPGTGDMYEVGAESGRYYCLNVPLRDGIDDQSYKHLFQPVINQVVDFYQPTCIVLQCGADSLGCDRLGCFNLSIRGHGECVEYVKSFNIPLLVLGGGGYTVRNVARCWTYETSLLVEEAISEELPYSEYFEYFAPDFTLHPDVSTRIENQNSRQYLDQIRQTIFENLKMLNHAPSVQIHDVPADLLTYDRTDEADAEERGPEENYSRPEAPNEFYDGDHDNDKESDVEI

In the case of `O=C(CCCCCNC(=O)c1cc(O)c2c(c1)C(=O)c1cccc(O)c1C2=O)NO`, the IC50 in series [1], in [2] and in series [3] was 5.5 µM throughout.

For `O=C(/C=C/c1ccc(S(=O)(=O)Nc2cc(F)cc(F)c2)cc1)NO`, the IC50 (usually the point on the concentration scale where inhibition reaches its midpoint) in series [4] came out at 0.0052 µM; in series [5], 0.77 µM; in series [6], 0.0052 µM; in [7], 0.0052 µM; in [8] it was 0.77 µM. The inhibition in vivo (as a rule, the drop in the measured response relative to a control, in per cent) at 30 mg/kg in series [9] is 41.5%.

With `O=C(CCCCCN1CCN2[C@H](Cc3c([nH]c4ccccc34)[C@H]2c2ccc(Br)cc2)C1)NO`, the IC50 turned out to be 1.5 µM in series [10]; 1.5 µM in [11]; 1.5 µM in [12]; 1.5 µM in series [13]; 0.0145 µM in series [14]; 1.5 µM in series [15]. Further, the IC50 in series [16] was found to be 0.0463 µM; in series [17], 1.5 µM; in series [18] it was 1.5 µM; in [19] it was 1.5 µM; in series [20] it was 1.5 µM; in series [21], 1.5 µM.

Take `O=C(CCCCCC(=O)N(Cc1ccc(Br)s1)c1ccc(OCCN2CCOCC2)cc1)NO`: the IC50 in series [22] was 0.62 µM; in series [23], 0.62 µM; in series [6], 0.00114 µM; in series [24], 0.00114 µM; in [7], 0.00114 µM; in series [25], 0.00114 µM. For the same compound, the IC50 in series [26] was 0.62 µM; in series [31], more than 100 µM; in [32] it was more than 100 µM; in series [33], more than 100 µM. Moreover, in series [27], the Activity was 93%. The “Ratio IC50” value in series [28], in [29] and in series [30] was 3.7 each time. Further, the selectivity ratio in [34], in series [35], in [36], in series [37], in series [38] and in series [39] was more than 16.2 throughout. The selectivity ratio in series [40], in [41] and in series [42] was more than 16.2 in each case.
